{
  "source": "paper PMC3653294",
  "about": "(Bioorganic & medicinal chemistry, 2013)",
  "origin": "cited, not measured here",
  "tested_on": "liver fibrosis",
  "data": [
    {"smiles": "CCOc1nc2cccc(C(=O)O)c2n1Cc1ccc(-c2ccccc2-c2nnn[nH]2)cc1", "note": "[Candesartan]", "values": [
      {"measurement": "effect on liver fibrosis", "result": "decreases liver fibrosis"}
    ]}
  ]
}
